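How tested: cells in 96-well plates exposed to compound for 48 hours at five concentrations. Abbreviation: GI50, concentration required for 50% inhibition of growth. TGI: concentration producing complete growth inhibition.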
Tests used:
Test in all cases: DTP human tumour cell line panel, 48 h
A498 renal = system: A498 renal
HCT-15 colon = system: HCT-15 colon
TK-10 renal = system: TK-10 renal
COLO 205 colon = system: COLO 205 colon
BT-549 breast = system: BT-549 breast
HCT-116 colon = system: HCT-116 colon
NCI-H522 lung = system: NCI-H522 lung
SK-OV-3 ovarian = system: SK-OV-3 ovarian
IGROV1 ovarian = system: IGROV1 ovarian
OVCAR-4 ovarian = system: OVCAR-4 ovarian
HS 578T breast = system: HS 578T breast
MDA-MB-231 breast = system: MDA-MB-231 breast
EKVX NSCLC = system: EKVX NSCLC
SNB-19 CNS = system: SNB-19 CNS
PC-3 prostate = system: PC-3 prostate
U251 CNS = system: U251 CNS
SNB-75 CNS = system: SNB-75 CNS
DU-145 prostate = system: DU-145 prostate
SK-MEL-28 melanoma = system: SK-MEL-28 melanoma
RXF 393 renal = system: RXF 393 renal
ACHN renal = system: ACHN renal
OVCAR-3 ovarian = system: OVCAR-3 ovarian
HOP-92 NSCLC = system: HOP-92 NSCLC
SF-268 CNS = system: SF-268 CNS
UACC-62 melanoma = system: UACC-62 melanoma
M14 melanoma = system: M14 melanoma
SR leukemia = system: SR leukemia
MOLT-4 leukemia = system: MOLT-4 leukemia
KM12 colon = system: KM12 colon
SK-MEL-5 melanoma = system: SK-MEL-5 melanoma
SF-295 CNS = system: SF-295 CNS
NCI-H226 lung = system: NCI-H226 lung
CAKI-1 renal = system: CAKI-1 renal
MDA-MB-435 = system: MDA-MB-435
786-0 renal = system: 786-0 renal
HL-60(TB) leukemia = system: HL-60(TB) leukemia
MCF7 breast = system: MCF7 breast
HOP-62 NSCLC = system: HOP-62 NSCLC
SF-539 CNS = system: SF-539 CNS
SK-MEL-2 melanoma = system: SK-MEL-2 melanoma
HT29 colon = system: HT29 colon
HCC-2998 colon = system: HCC-2998 colon
UACC-257 melanoma = system: UACC-257 melanoma
MALME-3M melanoma = system: MALME-3M melanoma
T-47D breast = system: T-47D breast
NCI-H460 lung = system: NCI-H460 lung
UO-31 renal = system: UO-31 renal
CCRF-CEM leukemia = system: CCRF-CEM leukemia
NCI/ADR-RES ovarian = system: NCI/ADR-RES ovarian
SN12C renal = system: SN12C renal
LOX IMVI melanoma = system: LOX IMVI melanoma
RPMI-8226 leukemia = system: RPMI-8226 leukemia
K-562 leukemia = system: K-562 leukemia
OVCAR-5 ovarian = system: OVCAR-5 ovarian
A549 NSCLC = system: A549 NSCLC
OVCAR-8 ovarian = system: OVCAR-8 ovarian
SW-620 colon = system: SW-620 colon

With `CN(C)S(=O)(=O)c1oc(-c2ccccc2)nc1C#N` the GI50 (A498 renal) was over 100 µM, the TGI (A498 renal) was over 100 µM and the GI50 (HCT-15 colon) was 11.6 µM. The TGI (HCT-15 colon) was 29.5 µM, the GI50 (TK-10 renal) was 17.4 µM and the TGI (TK-10 renal) was 31.6 µM. For the same compound, the GI50 (COLO 205 colon) was 11.5 µM, the TGI (COLO 205 colon) was 24.7 µM and the GI50 (BT-549 breast) was 12 µM. For the same compound, the TGI (BT-549 breast) was 25.1 µM, the GI50 (HCT-116 colon) was 12.6 µM and the TGI (HCT-116 colon) was 25.6 µM. It also gave a GI50 (NCI-H522 lung) of 2810 nM, a TGI (NCI-H522 lung) of 11 µM and a GI50 (SK-OV-3 ovarian) of over 100 µM. For the same compound, the TGI (SK-OV-3 ovarian) was over 100 µM, the GI50 (IGROV1 ovarian) was 29 µM and the TGI (IGROV1 ovarian) was over 100 µM. The GI50 (OVCAR-4 ovarian) was 14.8 µM, the TGI (OVCAR-4 ovarian) was 32 µM and the GI50 (HS 578T breast) was 23.4 µM. The TGI (HS 578T breast) was 98.4 µM, the GI50 (MDA-MB-231 breast) was 23.5 µM and the TGI (MDA-MB-231 breast) was 59.2 µM. For the same compound, the GI50 (EKVX NSCLC) was 21.5 µM, the TGI (EKVX NSCLC) was 52.4 µM and the GI50 (SNB-19 CNS) was 50 µM. For the same compound, the TGI (SNB-19 CNS) was over 100 µM, the GI50 (PC-3 prostate) was 15.3 µM and the TGI (PC-3 prostate) was 32.2 µM. The GI50 (U251 CNS) was 17.1 µM, the TGI (U251 CNS) was 32.6 µM and the GI50 (SNB-75 CNS) was 16.1 µM. The TGI (SNB-75 CNS) was 30.7 µM, the GI50 (DU-145 prostate) was 15.6 µM and the TGI (DU-145 prostate) was 29.4 µM. For the same compound, the GI50 (SK-MEL-28 melanoma) was 16.3 µM, the TGI (SK-MEL-28 melanoma) was 31.1 µM and the GI50 (RXF 393 renal) was 14.4 µM. It also gave a TGI (RXF 393 renal) of 28.4 µM, a GI50 (ACHN renal) of 14.9 µM and a TGI (ACHN renal) of 28.6 µM. It also gave a GI50 (OVCAR-3 ovarian) of 12.9 µM, a TGI (OVCAR-3 ovarian) of 27.8 µM and a GI50 (HOP-92 NSCLC) of 5.76 µM. The TGI (HOP-92 NSCLC) was 20.1 µM, the GI50 (SF-268 CNS) was 19.6 µM and the TGI (SF-268 CNS) was 49.8 µM. It also gave a GI50 (UACC-62 melanoma) of 18.4 µM, a TGI (UACC-62 melanoma) of 42.3 µM and a GI50 (M14 melanoma) of 12.1 µM. The TGI (M14 melanoma) was 26.7 µM, the GI50 (SR leukemia) was 2560 nM and the TGI (SR leukemia) was 13.4 µM. It also gave a GI50 (MOLT-4 leukemia) of 2820 nM, a TGI (MOLT-4 leukemia) of 11.5 µM and a GI50 (KM12 colon) of 28.5 µM. For the same compound, the TGI (KM12 colon) was 97.9 µM, the GI50 (SK-MEL-5 melanoma) was 18.1 µM and the TGI (SK-MEL-5 melanoma) was 34.1 µM. It also gave a GI50 (SF-295 CNS) of over 100 µM, a TGI (SF-295 CNS) of over 100 µM and a GI50 (NCI-H226 lung) of 10 µM. For the same compound, the TGI (NCI-H226 lung) was 27.9 µM, the GI50 (CAKI-1 renal) was 10.4 µM and the TGI (CAKI-1 renal) was 22.1 µM. It also gave a GI50 (MDA-MB-435) of 18.3 µM, a TGI (MDA-MB-435) of 44.9 µM and a GI50 (786-0 renal) of 15.3 µM. It also gave a TGI (786-0 renal) of 29.3 µM, a GI50 (HL-60(TB) leukemia) of 6.58 µM and a TGI (HL-60(TB) leukemia) of 29.4 µM. The GI50 (MCF7 breast) was 12 µM, the TGI (MCF7 breast) was 31.6 µM and the GI50 (HOP-62 NSCLC) was over 100 µM. It also gave a TGI (HOP-62 NSCLC) of over 100 µM, a GI50 (SF-539 CNS) of 17.6 µM and a TGI (SF-539 CNS) of 32.4 µM. The GI50 (SK-MEL-2 melanoma) was 13.8 µM, the TGI (SK-MEL-2 melanoma) was 28.6 µM and the GI50 (HT29 colon) was 16.6 µM. It also gave a TGI (HT29 colon) of 36.1 µM, a GI50 (HCC-2998 colon) of 16.9 µM and a TGI (HCC-2998 colon) of 31.6 µM. The GI50 (UACC-257 melanoma) was 15 µM, the TGI (UACC-257 melanoma) was 29.8 µM and the GI50 (MALME-3M melanoma) was 13.4 µM. The TGI (MALME-3M melanoma) was 30.1 µM, the GI50 (T-47D breast) was 16.1 µM and the TGI (T-47D breast) was 38.5 µM. It also gave a GI50 (NCI-H460 lung) of 22.3 µM, a TGI (NCI-H460 lung) of 58.9 µM and a GI50 (UO-31 renal) of 14.7 µM. The TGI (UO-31 renal) was 28.2 µM, the GI50 (CCRF-CEM leukemia) was 1900 nM and the TGI (CCRF-CEM leukemia) was 9.32 µM. It also gave a GI50 (NCI/ADR-RES ovarian) of 29.9 µM, a TGI (NCI/ADR-RES ovarian) of over 100 µM and a GI50 (SN12C renal) of 17.2 µM. It also gave a TGI (SN12C renal) of 49.1 µM, a GI50 (LOX IMVI melanoma) of 1260 nM and a TGI (LOX IMVI melanoma) of 11.6 µM. For the same compound, the GI50 (RPMI-8226 leukemia) was 18.9 µM, the TGI (RPMI-8226 leukemia) was 43.8 µM and the GI50 (K-562 leukemia) was 3.58 µM. It also gave a TGI (K-562 leukemia) of 37.8 µM, a GI50 (OVCAR-5 ovarian) of 18.1 µM and a TGI (OVCAR-5 ovarian) of 36.7 µM. For the same compound, the GI50 (A549 NSCLC) was 73.9 µM, the TGI (A549 NSCLC) was over 100 µM and the GI50 (OVCAR-8 ovarian) was 19 µM. The TGI (OVCAR-8 ovarian) was 39.6 µM, the GI50 (SW-620 colon) was 9.58 µM and the TGI (SW-620 colon) was 26.2 µM.
